Measurements published in patent publication US8247407B2, priority 2007, dated 2012).
“And” between values parts separate entries of the source, which are not always exact repeats. Equal entries are not always repeated. Structures can show the parent of a compound that is named as a salt.

Tests used:
patients = conditions: cited from earlier work
[1] = system: rats with alloxan diabetes; test: Hypoglycemic activity, alloxan diabetes model in rats (Example 1); format: in vivo, rat
Procedure: The pharmaceutical compositions for determination of anti-diabetic action had the following composition: active compound—1 g, potato starch—1 g, water—100 ml.
(§1) The comparison of anti-diabetic action of compounds was carried out using a standard model of alloxan diabetes and metmorphin as a comparative drug. The alloxan diabetes was induced by a single subcutaneous injection of water solution of alloxan hydrate (ICN Biomedicals, USA) at a dose of 150 mg/kg to rats weighting 180-200 g that have fasted for 24 hours. The following animal groups were studied: intact rats, diabetic non-treated rats, diabetic rats receiving Polfa-Kutno Ltd.″ metmorphin daily (for 23 days, 200 mg/kg); diabetic rats receiving daily (for 20 days) the abovementioned pharmaceutical compositions containing, as an active components, the compounds described in this invention: MC-200-MC-225. The compounds were administered intragastrically once a day in starch gel at a dose of 50 mg/kg rat weight.
(§2) The experimental drug doses were selected assuming the expected therapeutic doses for man and previously determined toxic doses (LD50 of studied compounds was approximately 500-1,000 mg/kg). The metmorphin dose for rats was extrapolated from the therapeutic dose for man. Drug administration was started on the third day after alloxan injection when blood glucose level increased approximately 3-fold as compared to control value. Each group consisted of 20 animals of both genders.

[2] = system: white rats with experimental diabetes (alloxan diabetes); test: Anti-diabetic, hypolipidemic and hypocholesteremic activity, alloxan diabetes model in rats (Example 2); format: in vivo, rat; conditions: compounds 50 mg/kg, metmorphin 200 mg/kg daily
Procedure: as §1, §2
Pharmaceutical compositions for determination of anti-diabetic action had the same composition as that given in Example I.
The comparison of the anti-diabetic action of compounds was carried out using a standard model of alloxan diabetes, as described in Example I, and metmorphin as a comparative drug.
In the course of experiment, the following parameters were recorded: animal general condition, water consumption, body mass, levels of glucose, total lipids, tri-glycerides, serum blood cholesterol, and glycosylated hemoglobin, using the generally accepted techniques (Laboratory methods of studies in clinical practice, V. V. Menshikov, Ed., Moscow, “Medicine”, 1987).

[3] = system: pancreatic Langerhans islets of rats with alloxan diabetes; test: Histological examination of the pancreas of alloxan-diabetic rats (Example 3); format: in vivo, rat; conditions: in 20 days after treatment; for Pancreatic Langerhans islet structure, haematoxylin-eosin staining: magnification 40×7; for Pancreatic Langerhans islet structure, aldehyde fuchsine staining: magnification 20×7
Procedure: Histological examination of pancreatic structure was carried out using the haematoxylin-eosin and aldehyde fuchsine staining of pancreatic sections using standard techniques.

[4] = diabetic rats' blood, in 10 days, compounds 50 mg/kg intragastrically once a day in starch gel, metmorphin 200 mg/kg daily
[5] = diabetic rats' blood, in 20 days, compounds 50 mg/kg intragastrically once a day in starch gel, metmorphin 200 mg/kg daily

Compound: CN(CCOc1ccc(CC2SC(=O)NC2=O)cc1)c1ccccn1 (stereo not drawn) [Avandia]
- Fatality rate after infarction, higher than untreated group (patients; Avandia group as compared to the untreated group): 64%
- Probability of myocardial infarction, higher than untreated group (patients; patients who took Avandia as compared to the untreated group): 43%

Compound: CCOC(=O)c1c(CSc2ccccc2)n(C)c2cc(Br)c(O)c(CN(C)C)c12 [MC-200, 1-methyl-2-phenylthiomethyl-3-carbethoxy-4-dimethylaminomethyl-5-hydroxy-6-bromoindole hydrochloride]
- Glucose content, mmol/l, in 10 days [1, 4]: 5.6 ± 0.2 mmol/L
- Glucose content, mmol/l, in 20 days [1, 5]: 5.4 ± 0.3 mmol/L
- Body mass ([2]; in 10 days): 180 ± 5 g
- Cholesterol ([2]; in 10 days): 2.7 ± 0.4 mmol/L
- Daily water consumption ([2]; in 10 days): 20 ± 3 mL
- Glucose ([2]; in 10 days): 5.6 ± 0.2 mmol/L
- Glycosylated hemoglobin ([2]; in 10 days): 6.2 ± 0.3 mol %
- Percent of survived rats ([2]; in 10 days): 100%
- Total lipids ([2]; in 10 days): 10.2 ± 0.5 g/L
- Tri-glycerides ([2]; in 10 days): 2.5 ± 0.2 mmol/L
- β-lipoproteins ([2]; in 10 days): 2.0 ± 0.2 g/L
- Body mass ([2]; in 20 days): 182 ± 10 g
- Cholesterol ([2]; in 20 days): 1.5 ± 0.2 mmol/L
- Daily water consumption ([2]; in 20 days): 24 ± 6 mL
- Glucose ([2]; in 20 days): 5.4 ± 0.3 mmol/L
- Glycosylated hemoglobin ([2]; in 20 days): 6.5 ± 05 mol %
- Percent of survived rats ([2]; in 20 days): 75%
- Total lipids ([2]; in 20 days): 10.6 ± 1.0 g/L
- Tri-glycerides ([2]; in 20 days): 1.5 ± 0.2 mmol/L
- β-lipoproteins ([2]; in 20 days): 2.1 ± 0.3 g/L
- Pancreatic Langerhans islet structure, haematoxylin-eosin staining [3]: Restoration of pancreatic Langerhans islet

Compound: CCOC(=O)c1c(CN2CCCC2)n(C)c2cc(-c3cccnc3)c3c(c12)CN(C)CO3 [MC-213, 9-carbethoxy-2,7-dimethyl-5-pyridine-3-yl-8-[(pyrrolidine-1-yl)methyl]-1,2,3,7-tetrahydro[1,3]oxazino [5,6-e] indole trihydrochloride]
- Glucose content, mmol/l, in 10 days ([1]; rat, in vivo): 5.8 ± 0.4 mmol/L
- Glucose content, mmol/l, in 20 days ([1]; rat, in vivo): 5.5 ± 0.3 mmol/L
- Body mass ([2]; in 10 days): 185 ± 5 g
- Cholesterol ([2]; in 10 days): 2.7 ± 0.5 mmol/L
- Daily water consumption ([2]; in 10 days): 26 ± 5 mL
- Glucose ([2]; in 10 days): 5.8 ± 0.3 mmol/L
- Glycosylated hemoglobin ([2]; in 10 days): 6.4 ± 0.3 mol %
- Percent of survived rats ([2]; in 10 days): 90%
- Total lipids ([2]; in 10 days): 10.5 ± 0.5 g/L
- Tri-glycerides ([2]; in 10 days): 2.5 ± 0.3 mmol/L
- β-lipoproteins ([2]; in 10 days): 2.2 ± 0.2 g/L
- Body mass ([2]; in 20 days): 183 ± 10 g
- Cholesterol ([2]; in 20 days): 1.5 ± 0.2 mmol/L
- Daily water consumption ([2]; in 20 days): 25 ± 6 mL
- Glucose ([2]; in 20 days): 5.5 ± 0.3 mmol/L
- Glycosylated hemoglobin ([2]; in 20 days): 6.2 ± 0.5 mol %
- Percent of survived rats ([2]; in 20 days): 75%
- Total lipids ([2]; in 20 days): 10.4 ± 1.0 g/L
- Tri-glycerides ([2]; in 20 days): 1.7 ± 0.2 mmol/L
- β-lipoproteins ([2]; in 20 days): 2.1 ± 0.2 g/L

Compound: CCOC(=O)c1c(CSc2ccc3ccccc3c2)n(C)c2cc(Br)c(O)c(CN(C)C)c12 [MC-217, 1-methyl-2-β-naphthylthiomethyl-3-carbethoxy-4-dimethylaminomethyl-5-hydroxy-6-bromoindole hydrochloride]
- Glucose content, mmol/l, in 10 days ([1]; rat, in vivo): 5.2 ± 0.2 mmol/L
- Glucose content, mmol/l, in 20 days ([1]; rat, in vivo): 4.8 ± 0.3 mmol/L
- Body mass ([2]; in 10 days): 190 ± 10 g
- Cholesterol ([2]; in 10 days): 2.4 ± 0.2 mmol/L
- Daily water consumption ([2]; in 10 days): 25 ± 5 mL
- Glucose ([2]; in 10 days): 5.2 ± 0.2 mmol/L
- Glycosylated hemoglobin ([2]; in 10 days): 5.2 ± 0.2 mol %
- Percent of survived rats ([2]; in 10 days): 100%
- Total lipids ([2]; in 10 days): 10.4 ± 0.5 g/L
- Tri-glycerides ([2]; in 10 days): 2.3 ± 0.2 mmol/L
- β-lipoproteins ([2]; in 10 days): 2.1 ± 0.2 g/L
- Body mass ([2]; in 20 days): 185 ± 10 g
- Cholesterol ([2]; in 20 days): 1.4 ± 0.2 mmol/L
- Daily water consumption ([2]; in 20 days): 22 ± 5 mL
- Glucose ([2]; in 20 days): 4.8 ± 0.1 mmol/L
- Glycosylated hemoglobin ([2]; in 20 days): 4.9 ± 0.3 mol %
- Percent of survived rats ([2]; in 20 days): 100%
- Total lipids ([2]; in 20 days): 10.2 ± 0.3 g/L
- Tri-glycerides ([2]; in 20 days): 1.5 ± 0.2 mmol/L
- β-lipoproteins ([2]; in 20 days): 2.1 ± 0.2 g/L
- Pancreatic Langerhans islet structure, aldehyde fuchsine staining [3]: Restoration of pancreatic Langerhans islet
- Pancreatic Langerhans islet structure, haematoxylin-eosin staining [3]: Restoration of pancreatic Langerhans islet

Compound: CN(C)C(=N)N=C(N)N [Metmorphin, reference compound]
- Glucose content, mmol/l, in 10 days [1, 4]: 6.6 ± 0.3 mmol/L
- Glucose content, mmol/l, in 20 days [1, 5]: 6.4 ± 0.3 mmol/L
- Body mass ([2]; in 10 days): 185 ± 5 g
- Cholesterol ([2]; in 10 days): 2.6 ± 0.3 mmol/L and 2.4 ± 0.3 mmol/L
- Daily water consumption ([2]; in 10 days): 25 ± 3 mL
- Glucose ([2]; in 10 days): 6.6 ± 0.3 mmol/L and 6.4 ± 0.3 mmol/L
- Glycosylated hemoglobin ([2]; in 10 days): 5.1 ± 0.1 mol % and 5.0 ± 0.1 mol %
- Percent of survived rats ([2]; in 10 days): 100%
- Total lipids ([2]; in 10 days): 10.6 ± 0.6 g/L and 10.5 ± 0.5 g/L
- Tri-glycerides ([2]; in 10 days): 2.6 ± 0.1 mmol/L
- β-lipoproteins ([2]; in 10 days): 2.2 ± 0.3 g/L and 2.2 ± 0.4 g/L
- Body mass ([2]; in 20 days): 180 ± 5 g
- Cholesterol ([2]; in 20 days): 1.7 ± 0.3 mmol/L and 1.6 ± 0.3 mmol/L
- Daily water consumption ([2]; in 20 days): 20 ± 3 mL and 19 ± 3 mL
- Glucose ([2]; in 20 days): 6.4 ± 0.2 mmol/L and 6.3 ± 0.2 mmol/L
- Glycosylated hemoglobin ([2]; in 20 days): 6.2 ± 0.2 mol % and 6.1 ± 0.2 mol %
- Percent of survived rats ([2]; in 20 days): 80%
- Total lipids ([2]; in 20 days): 11.6 ± 1.2 g/L and 11.5 ± 1.0 g/L
- Tri-glycerides ([2]; in 20 days): 1.6 ± 0.1 mmol/L and 1.6 ± 0.2 mmol/L
- β-lipoproteins ([2]; in 20 days): 2.2 ± 0.3 g/L and 2.2 ± 0.4 g/L
- Pancreatic Langerhans islet structure, aldehyde fuchsine staining [3]: Restoration of pancreatic Langerhans islet
- Pancreatic Langerhans islet structure, haematoxylin-eosin staining [3]: Restoration of pancreatic Langerhans islet
